Assays:
[1] = test system: cardiac allograft, WKAH donors and ACI recipients; test: Heterotopic cardiac allograft survival, MHC-incompatible rat strains; assay type: in vivo
[2] = test system: IL-2 mRNA in alloantigen-stimulated splenic T cells; test: IL-2 mRNA expression in allogeneic mixed lymphocyte culture (PCR); assay type: cell-based, rat; conditions: 48 hours
Experimental: The housekeeping gene HPRT was used as an internal control in order to compare levels of IL-2 mRNA levels relative to the HPRT mRNA levels, as detailed below.
Allogeneic mixed lymphocyte culture was carried out by using nylon-nonadherent spleen cells of F344 rat (RT1^1v1) as responder cells and the spleen cells of WKAH rat (RT1^k) pretreated with 40 μg/ml of mitomycin C for 30 min as stimulator cells. […] After culturing for 48 hours, the cells were recovered by centrifugation. The expression of IL-2 mRNA in the cells was determined by a polymerase chain reaction (PCR) method.
Total RNA was reverse transcribed in […] of buffer solution containing 10 mmol/L Tris-HCl (pH 8.3),50 mM KCl, 5 mM MgCl2, 1 mM each dNTP (dATP, dGTP, dTTP and dCTP), 60 U RNase inhibitor (Takara Ltd. Tokyo, Japan), 15 U avian myelobalastosis virus reverse transcriptase (Takara Ltd.) and 150 pmol random 9-mers at 30° C. for 10 min and 42° C. for 30 min. Primer sequences for IL-2 and hypoxanthine-guanine phosphoribosyltransferase (HPRT) were taken from the previous report (44).
The length in base pairs of the PCR products of IL-2 and HPRT are 351 and 608 bp respectively. […] Fluorescence intensity of the specific bands was visualized by fluorescence image analyzer (FLUOR IMAGER 575®, Molecular Dynamics).

[3] = test system: calcein-prelabeled lymphocytes in lymphoid tissues; test: Lymphocyte homing of calcein-prelabeled lymphocytes; assay type: in vivo, rat; conditions: oral 1 mg/kg
Experimental: The lymphocytes prepared from mesenteric lymph nodes and axillary lymph nodes in 5 to 6-week old F344 rats were pre-labeled with calcein-AM (Molecular Probes) at 1 μmol/L on ice for 30 min. After the labeling with calcein-AM, the lymphocytes were washed three times with ice-cold saline. Thereafter, the calcein-prelabeled lymphocytes at 5×10^7 cells were transfused through the tail vein to sex and age-matched F344 rats. FTY720 at 0.1 or 1 mg/kg was orally administered 2.5 hours before the transfusion. After 30 min. of the transfusion, mesenteric lymph nodes, axillary lymph nodes, Peyer's patches, and spleen were removed and the numbers of calcein prelabeled lymphocytes in these tissues were measured using flow cytometer (EPICS-XL). To examine the influence of antibodies against lymphocyte homing receptors, the calcein-prelabeled lymphocytes were treated with 60 μg/ml of either mouse anti-rat CD49d Mab (clone TA-2) (49), hamster anti-rat CD62L Mab (clone HRL3) (50), mouse anti-rat CD11a Mab (clone WT.1) (51), or control Ig at 4° C. for 30 min. Anti-rat lymphocyte-homing receptor Mabs and control Ig were purchased from Seikagaku-kougyou Ltd. or Pharmingen, respectively.

circulating lymphocytes = test: Circulating lymphocytes in peripheral blood of dogs; assay type: in vivo, dog; conditions: oral
Source text: In dogs and monkeys, as well as rats, oral administration with FTY720 also decreases the number of circulating lymphocytes in peripheral blood. The reduction of the number of T cells was especially remarkable. Withdrawal of FTY720 treatment recovered the number of lymphocytes in peripheral blood to the normal level within 2 weeks.

## CCCCCCCCc1ccc(CCC(N)(CO)CO)cc1.Cl [FTY720, 2-amino-2[2-(4-octylphenyl)ethyl]propane-1,3-diol hydrochloride]
[1]; 0.1 mg/kg for 14 days
  MST of cardiac allograft: 20.0 days
[1]; 0.3 mg/kg for 14 days
  MST of cardiac allograft: 21.0 days
[1]; 1 mg/kg for 14 days
  MST of cardiac allograft: 25.5 days
[1]; 3 mg/kg for 14 days
  MST of cardiac allograft: 29.5 days
[1]; 10 mg/kg for 14 days
  MST of cardiac allograft: 58.5 days
[1]; 10 mg/kg, in three out of eight recipient rats
  long-term or indefinite cardiac graft survival: more than 100 days
[1]; vs control
  dose that significantly prolonged cardiac allograft survival: ≥ 0.1 mg/kg
[2]
  concentration that inhibited IL-2 mRNA expression: > 1000 nM
[3]
  homing of calcein-prelabeled lymphocytes to mesenteric lymph nodes and Peyer's patches: induced lymphocyte homing
Circulating lymphocytes
  number of circulating lymphocytes in peripheral blood: decreases
